# Measured values reported in ChEMBL document CHEMBL1201862, “PubChem BioAssay data set” (2004).
# Calls of active or inactive are those of the source.
# What was measured:
# [1] = biological target: T1, RNA-binding protein pos-1 (Caenorhabditis elegans, UniProt G5EF15); test: inhibitors of POS-1/mex-3 RNA binding, dose response, biochemical, fluorescence polarization (AID 1964);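 note: purified POS-1 fused to maltose binding protein made in E. coli; potency of compounds blocking POS-1 binding to fluorescent RNA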
# T1 sequence (G5EF15 whole entry): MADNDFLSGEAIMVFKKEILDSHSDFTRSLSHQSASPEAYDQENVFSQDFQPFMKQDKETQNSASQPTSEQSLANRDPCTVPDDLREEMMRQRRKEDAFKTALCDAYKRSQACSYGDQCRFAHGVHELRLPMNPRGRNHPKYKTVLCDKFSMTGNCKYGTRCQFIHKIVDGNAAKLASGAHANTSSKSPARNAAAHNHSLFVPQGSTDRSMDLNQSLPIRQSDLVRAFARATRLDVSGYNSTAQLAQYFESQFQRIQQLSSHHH
# [2] = biological target: T2, Zinc finger protein mex-5 (Caenorhabditis elegans, UniProt Q9XUB2); test: MEX-5/TCR-2 RNA interaction inhibitors, dose response, biochemical, C. elegans, fluorescence polarization (AID 1960)
# T2 sequence (Q9XUB2 whole entry): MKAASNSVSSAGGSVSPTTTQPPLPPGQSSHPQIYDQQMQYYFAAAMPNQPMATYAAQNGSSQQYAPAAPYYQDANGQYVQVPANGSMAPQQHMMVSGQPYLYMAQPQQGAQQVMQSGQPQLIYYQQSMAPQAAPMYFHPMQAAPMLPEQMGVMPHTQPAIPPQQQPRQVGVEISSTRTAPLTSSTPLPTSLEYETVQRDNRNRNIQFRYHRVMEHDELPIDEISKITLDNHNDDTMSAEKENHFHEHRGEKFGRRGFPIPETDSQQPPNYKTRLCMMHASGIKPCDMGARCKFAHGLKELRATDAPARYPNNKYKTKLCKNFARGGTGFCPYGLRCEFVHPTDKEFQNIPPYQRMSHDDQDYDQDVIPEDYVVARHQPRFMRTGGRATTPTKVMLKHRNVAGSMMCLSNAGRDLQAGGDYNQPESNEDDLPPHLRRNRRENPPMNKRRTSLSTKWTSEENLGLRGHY
# [3] = biological target: FAD-linked sulfhydryl oxidase ALR (Homo sapiens, UniProt P55789); test: inhibitors of human ALR sulfhydryl oxidase, dose response, biochemical, H2O2 detection, luminescence, cherry-pick (AID 493248)
# Chain of FAD-linked sulfhydryl oxidase ALR (P55789 whole entry): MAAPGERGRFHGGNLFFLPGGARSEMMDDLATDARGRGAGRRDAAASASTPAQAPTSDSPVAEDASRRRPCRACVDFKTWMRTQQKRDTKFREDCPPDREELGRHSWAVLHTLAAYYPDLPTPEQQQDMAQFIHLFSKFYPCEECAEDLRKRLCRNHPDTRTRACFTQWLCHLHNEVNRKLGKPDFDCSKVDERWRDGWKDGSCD
# [4] = cells; format: functional
# [5] = biological target: Genome polyprotein (dengue virus type 2, UniProt P29990); test: Dengue-2 NS5 methyltransferase inhibitors, primary screen, biochemical, confirmation dose response (AID 588689); format: functional
# Chain of Genome polyprotein (P29990 2492-3391 limits assumed): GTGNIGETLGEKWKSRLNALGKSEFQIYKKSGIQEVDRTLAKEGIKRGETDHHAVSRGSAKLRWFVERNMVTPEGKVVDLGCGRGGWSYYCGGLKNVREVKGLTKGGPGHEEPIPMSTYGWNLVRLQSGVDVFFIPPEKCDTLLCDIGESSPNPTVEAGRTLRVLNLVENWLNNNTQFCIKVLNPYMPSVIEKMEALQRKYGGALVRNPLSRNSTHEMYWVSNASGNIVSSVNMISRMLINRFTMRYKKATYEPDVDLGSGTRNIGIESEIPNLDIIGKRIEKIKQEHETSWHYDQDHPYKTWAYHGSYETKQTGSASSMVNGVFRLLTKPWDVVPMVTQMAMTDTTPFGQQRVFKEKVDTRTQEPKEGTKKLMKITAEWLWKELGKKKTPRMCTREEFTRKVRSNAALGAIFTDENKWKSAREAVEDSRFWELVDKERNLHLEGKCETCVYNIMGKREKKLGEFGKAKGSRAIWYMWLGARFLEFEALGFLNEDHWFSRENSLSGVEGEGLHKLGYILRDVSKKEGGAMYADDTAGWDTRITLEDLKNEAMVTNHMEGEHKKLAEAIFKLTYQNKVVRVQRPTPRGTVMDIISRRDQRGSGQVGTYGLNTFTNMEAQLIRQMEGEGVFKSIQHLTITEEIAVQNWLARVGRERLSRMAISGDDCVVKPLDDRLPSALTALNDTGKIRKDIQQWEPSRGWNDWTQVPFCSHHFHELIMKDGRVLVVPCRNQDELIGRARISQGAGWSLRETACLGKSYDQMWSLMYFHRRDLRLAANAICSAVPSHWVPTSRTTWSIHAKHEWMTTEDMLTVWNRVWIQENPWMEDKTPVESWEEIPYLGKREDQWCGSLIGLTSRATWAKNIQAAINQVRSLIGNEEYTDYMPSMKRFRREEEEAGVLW
# [6] = biological target: Large T antigen (Simian virus 40, UniProt P03070); format: functional, Betapolyomavirus macacae;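 note: Confirmatory-stage PubChem screen for compounds that inhibit SV40 T antigen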
# Chain of Large T antigen (P03070 whole entry): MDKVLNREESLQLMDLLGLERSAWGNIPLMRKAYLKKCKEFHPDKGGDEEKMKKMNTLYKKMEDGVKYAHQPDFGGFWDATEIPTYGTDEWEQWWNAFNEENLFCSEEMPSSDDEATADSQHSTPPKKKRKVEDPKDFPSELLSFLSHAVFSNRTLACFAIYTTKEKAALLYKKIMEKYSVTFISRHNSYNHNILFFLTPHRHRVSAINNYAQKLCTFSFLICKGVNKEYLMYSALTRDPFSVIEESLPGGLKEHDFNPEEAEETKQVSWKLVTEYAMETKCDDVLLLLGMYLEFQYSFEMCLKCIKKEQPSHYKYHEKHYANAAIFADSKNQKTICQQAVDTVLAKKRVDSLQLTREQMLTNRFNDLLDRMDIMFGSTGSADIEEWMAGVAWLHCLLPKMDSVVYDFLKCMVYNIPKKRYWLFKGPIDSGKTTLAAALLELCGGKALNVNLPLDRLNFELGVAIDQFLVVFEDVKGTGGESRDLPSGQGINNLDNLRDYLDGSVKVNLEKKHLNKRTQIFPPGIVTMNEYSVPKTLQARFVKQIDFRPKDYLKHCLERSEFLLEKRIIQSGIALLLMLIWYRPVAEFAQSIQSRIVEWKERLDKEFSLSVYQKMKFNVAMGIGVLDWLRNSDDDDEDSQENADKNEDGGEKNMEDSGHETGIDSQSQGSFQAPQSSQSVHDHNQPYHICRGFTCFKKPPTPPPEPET
# [7] = biological target: DNA dC->dU-editing enzyme APOBEC-3G (Homo sapiens, UniProt Q9HC16); test: Dose Response confirmation of small molecule APOBEC3G DNA Deaminase Inhibitors via a fluorescence-based single-stranded DNA deaminase assay. [Related pubchem assays (depositor defined):AID493012, AID493028]; format: functional
# Chain of DNA dC->dU-editing enzyme APOBEC-3G (Q9HC16 whole entry): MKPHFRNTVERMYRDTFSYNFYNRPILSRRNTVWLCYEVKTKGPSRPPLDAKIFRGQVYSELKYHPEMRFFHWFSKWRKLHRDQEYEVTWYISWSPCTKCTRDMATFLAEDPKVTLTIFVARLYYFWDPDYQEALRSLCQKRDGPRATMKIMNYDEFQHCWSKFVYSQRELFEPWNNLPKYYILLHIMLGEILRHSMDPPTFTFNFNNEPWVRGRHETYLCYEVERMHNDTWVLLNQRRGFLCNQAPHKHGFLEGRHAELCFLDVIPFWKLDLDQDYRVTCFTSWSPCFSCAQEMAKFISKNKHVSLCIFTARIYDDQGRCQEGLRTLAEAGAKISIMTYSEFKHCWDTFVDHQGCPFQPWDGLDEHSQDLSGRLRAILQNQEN
# [8] = biological target: T3, Rac GTPase-activating protein 1 (Homo sapiens, UniProt Q9H0H5); test: MgcRacGAP GTPase-activating activity inhibitors, confirmation, biochemical, ADP Hunter fluorescence, primary and confirmatory (AID 624330); format: functional
# T3 sequence (Q9H0H5 whole entry): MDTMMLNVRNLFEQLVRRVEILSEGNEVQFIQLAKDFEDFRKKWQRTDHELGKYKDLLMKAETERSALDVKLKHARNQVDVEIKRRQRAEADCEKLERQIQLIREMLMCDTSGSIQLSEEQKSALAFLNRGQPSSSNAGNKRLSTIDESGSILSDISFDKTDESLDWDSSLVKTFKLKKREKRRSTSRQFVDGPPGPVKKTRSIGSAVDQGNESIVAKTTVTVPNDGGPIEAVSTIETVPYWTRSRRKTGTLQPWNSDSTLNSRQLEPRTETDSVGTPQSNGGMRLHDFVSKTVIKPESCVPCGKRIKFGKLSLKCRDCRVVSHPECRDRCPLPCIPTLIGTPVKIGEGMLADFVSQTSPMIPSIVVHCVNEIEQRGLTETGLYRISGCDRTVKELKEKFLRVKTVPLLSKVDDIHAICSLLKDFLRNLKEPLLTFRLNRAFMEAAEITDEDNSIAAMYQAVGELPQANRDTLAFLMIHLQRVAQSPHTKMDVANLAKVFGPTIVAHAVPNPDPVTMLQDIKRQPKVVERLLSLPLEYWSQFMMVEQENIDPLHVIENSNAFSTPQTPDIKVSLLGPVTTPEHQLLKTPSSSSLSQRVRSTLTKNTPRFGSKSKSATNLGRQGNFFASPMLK
# [9] = biological target: T4, Endoribonuclease toxin MazF (Escherichia coli K-12, UniProt P0AE70); test: MazF toxin RNase activators, dose response, biochemical, fluorescence, single-stranded RNA substrate, uHTS hits (AID 588481); format: functional
# T4 sequence (P0AE70 whole entry): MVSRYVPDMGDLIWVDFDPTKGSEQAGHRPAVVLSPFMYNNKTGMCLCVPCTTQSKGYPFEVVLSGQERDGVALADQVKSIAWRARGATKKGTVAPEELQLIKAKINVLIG
# [10] = biological target: T4, Endoribonuclease toxin MazF; test: fluorescent RNA oligo signal without MazF, dose response, counter-screen for MazEF activator project, biochemical, fluorescence, single-stranded RNase substrate (AID 588502); format: functional
# [11] = cells; format: functional, cell-based
# [12] = cells; format: functional, cell-based; remark: listed apart in the source
# [13] = cytotoxicity in HEK-293T cells, dose response, cytotoxicity control for BCR NF-kB inhibitor project, luminescence, B-cell screen hits (AID 489021); format: functional, cell-based;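 note: HEK-293T cells carrying an NF-kB luciferase reporter; cells exposed to compound for about 14 hours before viability readout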
# [14] = biological target: T5, Microphthalmia-associated transcription factor (Homo sapiens, UniProt O75030); test: TRPM1 promoter luciferase signal decrease, dose response, MITF inhibitor project, cell-based, SK-MEL-5, cherry-picked, set 3 (AID 493073); format: functional
# T5 sequence (O75030 whole entry): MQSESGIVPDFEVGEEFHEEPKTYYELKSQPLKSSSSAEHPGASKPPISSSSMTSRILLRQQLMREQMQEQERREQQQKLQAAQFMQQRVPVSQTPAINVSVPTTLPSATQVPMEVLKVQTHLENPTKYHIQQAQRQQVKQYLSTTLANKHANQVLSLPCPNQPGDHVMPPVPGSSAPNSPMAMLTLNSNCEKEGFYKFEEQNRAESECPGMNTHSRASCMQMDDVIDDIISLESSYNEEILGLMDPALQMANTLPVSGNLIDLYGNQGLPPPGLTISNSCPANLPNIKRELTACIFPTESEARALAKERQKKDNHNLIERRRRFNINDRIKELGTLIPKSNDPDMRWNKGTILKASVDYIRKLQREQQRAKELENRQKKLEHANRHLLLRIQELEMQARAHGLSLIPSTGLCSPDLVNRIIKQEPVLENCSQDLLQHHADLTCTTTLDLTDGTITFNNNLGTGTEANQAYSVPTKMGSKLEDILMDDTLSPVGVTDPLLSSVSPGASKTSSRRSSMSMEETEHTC
# [15] = HepG2 cell cytotoxicity, dose response, cytotoxicity control, plate reader, cherry-pick, antagonist series (AID 743416); format: functional, cell-based
# [16] = LGR2 antagonists, dose response, cell-based, HEK293, CRE-luciferase reporter, cherry pick, set 2 (AID 743343); format: functional;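 note: transfected cells were stimulated with diluted bursicon conditioned medium after compound addition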
# [17] = MC4R antagonists, dose response, counter-screen for LGR2 antagonist project, cell-based, plate reader, cherry pick (AID 743444); format: functional;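 note: transfected HEK 293 cells stimulated with alpha-MSH peptide; potency of inhibitors of the alpha-MSH evoked signal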
# [18] = biological target: Cytochrome P450 2D6 (Homo sapiens, UniProt P10635);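 note: CYP2D6 member of a cytochrome P450 panel assay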
# Chain of Cytochrome P450 2D6 (P10635 whole entry): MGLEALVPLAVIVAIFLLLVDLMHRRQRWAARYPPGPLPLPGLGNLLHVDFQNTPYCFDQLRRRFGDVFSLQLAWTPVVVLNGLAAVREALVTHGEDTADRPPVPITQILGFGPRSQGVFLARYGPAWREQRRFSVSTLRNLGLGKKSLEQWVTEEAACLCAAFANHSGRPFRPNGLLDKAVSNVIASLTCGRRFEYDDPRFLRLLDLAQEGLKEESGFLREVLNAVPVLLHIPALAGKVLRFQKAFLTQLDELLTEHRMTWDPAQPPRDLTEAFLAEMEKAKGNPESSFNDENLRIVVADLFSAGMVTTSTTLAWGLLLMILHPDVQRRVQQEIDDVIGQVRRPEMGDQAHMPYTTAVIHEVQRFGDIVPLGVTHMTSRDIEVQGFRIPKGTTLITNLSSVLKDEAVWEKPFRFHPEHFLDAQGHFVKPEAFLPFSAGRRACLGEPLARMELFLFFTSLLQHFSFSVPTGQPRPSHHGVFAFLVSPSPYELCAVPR
# [19] = biological target: Cytochrome P450 2C9 (Homo sapiens, UniProt P11712)
# Chain of Cytochrome P450 2C9 (P11712 whole entry): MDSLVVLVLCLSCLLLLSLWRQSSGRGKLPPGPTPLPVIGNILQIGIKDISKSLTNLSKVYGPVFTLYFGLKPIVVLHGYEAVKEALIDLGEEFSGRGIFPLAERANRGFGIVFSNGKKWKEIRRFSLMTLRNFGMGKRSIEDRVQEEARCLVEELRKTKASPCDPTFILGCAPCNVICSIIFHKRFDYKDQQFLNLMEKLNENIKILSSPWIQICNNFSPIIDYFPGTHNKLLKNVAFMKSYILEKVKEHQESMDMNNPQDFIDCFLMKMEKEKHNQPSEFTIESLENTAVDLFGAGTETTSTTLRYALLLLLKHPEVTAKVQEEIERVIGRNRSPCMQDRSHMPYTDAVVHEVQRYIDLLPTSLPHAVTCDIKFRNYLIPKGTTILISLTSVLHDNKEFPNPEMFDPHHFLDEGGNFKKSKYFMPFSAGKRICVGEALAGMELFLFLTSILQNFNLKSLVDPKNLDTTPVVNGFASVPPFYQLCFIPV
# [20] = biological target: Luciferin 4-monooxygenase (Photinus pyralis, UniProt P08659); test: firefly luciferase enzyme inhibitors, dose response, biochemical, luminescence (AID 1891)
# Chain of Luciferin 4-monooxygenase (P08659 whole entry): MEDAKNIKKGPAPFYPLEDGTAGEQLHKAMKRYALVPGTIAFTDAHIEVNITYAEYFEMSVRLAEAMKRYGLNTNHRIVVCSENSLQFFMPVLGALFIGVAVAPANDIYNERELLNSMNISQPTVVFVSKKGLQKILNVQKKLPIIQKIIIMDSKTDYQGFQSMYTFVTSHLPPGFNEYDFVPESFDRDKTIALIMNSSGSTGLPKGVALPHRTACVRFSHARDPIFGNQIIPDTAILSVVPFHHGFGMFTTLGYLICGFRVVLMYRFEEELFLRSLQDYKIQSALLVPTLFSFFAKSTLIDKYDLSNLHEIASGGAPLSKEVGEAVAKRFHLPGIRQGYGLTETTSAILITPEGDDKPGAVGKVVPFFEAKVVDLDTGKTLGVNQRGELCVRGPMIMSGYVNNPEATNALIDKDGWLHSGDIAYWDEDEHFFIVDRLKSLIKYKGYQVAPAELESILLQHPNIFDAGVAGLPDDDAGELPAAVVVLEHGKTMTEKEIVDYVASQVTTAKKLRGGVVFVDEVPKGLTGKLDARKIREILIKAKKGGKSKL
# [21] = Luminescence Cell-Based Dose Confirmation HTS to Identify Inhibitors of Platelet Dense Granule Release. [Related pubchem assays: 1663 (Primary HTS), 1678 (Summary of Project)]; format: functional
# [22] = inhibitors of intracellular T. cruzi replication, confirmation, NIH3T3 host cells, beta-gal luminescence (AID 2044); format: functional, cell-based;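 note: intracellular parasites grown in NIH/3T3 mouse fibroblasts as host cells; luminescent beta-galactosidase reporter signal from transgenic T. cruzi replicating inside host cells; inhibitors lower the luminescence signal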
# [23] = cytotoxicity toward NIH3T3 fibroblasts, dose response, counter-screen, cell-based, ATP luminescence, mouse fibroblasts (AID 2010); format: functional;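 note: cells exposed to compound for about 90 hours before reading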
# [24] = biological target: Glyceraldehyde-3-phosphate dehydrogenase (Homo sapiens, UniProt P04406)
# Chain of Glyceraldehyde-3-phosphate dehydrogenase (P04406 whole entry): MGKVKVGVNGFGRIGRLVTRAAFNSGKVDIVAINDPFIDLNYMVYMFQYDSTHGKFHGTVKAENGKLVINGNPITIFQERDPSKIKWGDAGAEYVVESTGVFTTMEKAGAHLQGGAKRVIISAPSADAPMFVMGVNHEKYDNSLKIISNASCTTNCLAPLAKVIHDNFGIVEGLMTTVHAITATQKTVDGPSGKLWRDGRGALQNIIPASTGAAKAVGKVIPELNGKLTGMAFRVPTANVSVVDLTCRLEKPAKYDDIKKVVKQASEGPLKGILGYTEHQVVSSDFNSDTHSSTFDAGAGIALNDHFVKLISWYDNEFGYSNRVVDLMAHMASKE
# [25] = HEp-2 cell cytotoxicity, dose response, cytotoxicity control for RSV inhibitor project, HTS (AID 2410); format: functional; conditions: human respiratory syncytial virus
smiles,measurement,setting,value
Cc1ccc(Sc2ccc(C=C3C(=O)N(C)C(=O)N(C)C3=O)o2)cc1,EC50,[1],> 300 µM (not active)
same,EC50,[2],25.5 µM (inconclusive)
same,AC50,[3],0.25 µM (active)
same,IC50,[4],21.4 µM (active)
same,IC50,[5],14.5 µM (active)
C[C@@H]1O[C@@H](OC2C(O)C(OCCc3ccc(O)c(O)c3)OC(CO)C2OC(=O)/C=C/c2ccc(O)c(O)c2)[C@H](O)[C@H](O)[C@H]1O (some centres not stated),IC50,[6],3.26 µM (active)
COc1ccc2c(C)cc3n[nH]c(=S)n3c2c1,IC50,[7],> 100 µM (inactive)
same,IC50,[8],20.6 µM (active)
O=C(Nc1ccccc1)c1ccc(NCCc2ccccc2)c([N+](=O)[O-])c1,EC50,[9],> 99 µM (inactive)
same,EC50,[10],84.3 µM (inactive)
CCN(CC)S(=O)(=O)c1ccc(C(=O)/C=C/c2ccc(-c3ccc([N+](=O)[O-])cc3)o2)cc1,EC50,[9],> 99 µM (inactive)
same,EC50,[10],> 99 µM (inactive)
COC(=O)Cc1sc(-c2ccccn2)nc1-c1ccccc1,IC50,[7],41.1 µM (active)
FC(F)(F)c1ccc(CSc2ccccn2)cc1,EC50,[11],> 350 µM (not active)
same,EC50,[12],70 µM (active)
C=C(C)CNC(=O)c1ccc2nc(Cc3ccc(OC)cc3)oc2c1,EC50,[11],> 350 µM (not active)
same,EC50,[12],15.1 µM (active)
Cc1cc(O)nc2c(C)cc(S(=O)(=O)N3CCCCC3)cc12,IC50,[13],> 80 µM (inactive)
Cc1cc2ccccn2c1C(=O)c1ccc(NN)c([N+](=O)[O-])c1,IC50,[13],> 80 µM (inactive)
O=C1NC(=O)N(Cc2ccccc2Cl)C(=O)/C1=C/c1cccs1,AC50,[14],29.7 µM (active)
CN(C)S(=O)(=O)c1ccc(NC(=O)N2CCN(c3ccccc3)CC2)cc1,IC50,[13],> 80 µM (inactive)
CCn1c(CN2CCN(c3ccc(Cl)cc3)CC2)nc2ccccc21,IC50,[13],> 80 µM (inactive)
COCCCN=C(S)NN=C(S)Nc1ccc(F)cc1F,IC50,[7],10.1 µM (active)
CC1=CC2=C(C=O)C(=O)C(C)(O)C(O)C2=CO1 (configuration not stated),EC50,[9],> 99 µM (inactive)
same,EC50,[10],> 99 µM (inactive)
c1ccc(COc2ccc(OCCCN3CCCC3)cc2)cc1,AC50,[15],> 52 µM (inactive)
same,AC50,[16],0.751 µM (active)
same,AC50,[17],1.19 µM (active)
Cc1nnc2c3ccccc3c(-c3ccccc3)nn12,IC50,[13],> 80 µM (inactive)
CCOC(=O)Cc1nn(CC)c(=O)c2ccccc12,EC50,[11],> 350 µM (not active)
same,EC50,[12],> 350 µM (not active)
Nc1nnc(S)n1-c1ccc(Cl)cc1,IC50,[7],23.7 µM (active)
COc1cccc(-c2cc(C(=O)Nc3cccc(O)c3)no2)c1,AC50,[15],42.3 µM (active)
same,AC50,[16],7.52 µM (active)
same,AC50,[17],8.73 µM (active)
same,AC50,[18],22.4 µM (inconclusive)
same,AC50,[19],inconclusive
COc1cc(/C=c2\sc3n(c2=O)CCCN=3)ccc1O,IC50,[6],16.2 µM (active)
same,AC50,[3],4.19 µM (active)
same,IC50,[8],15.6 µM (active)
CC(C)c1nnc(NC(=O)CCC(=O)NC2CC2)s1,EC50,[11],> 350 µM (not active)
same,EC50,[20],> 112 µM (not active)
same,EC50,[21],> 112 µM (not active)
same,EC50,[12],> 350 µM (not active)
CCC1CCc2sc(C(=O)O)cc2C1 (configuration not stated),EC50,[11],> 350 µM (not active)
same,EC50,[12],> 350 µM (not active)
COc1cc(/C=N/Nc2nc(Nc3ccccc3)nc(N3CCOCC3)n2)ccc1OC(=O)c1ccco1,EC50,[22],0.895 µM (active)
same,EC50,[23],6.73 µM (active)
same,IC50,[13],> 80 µM (inactive)
COc1cc(/C=N/NC(=O)c2ccccc2)ccc1O,IC50,[6],10.5 µM (active)
same,IC50,[8],29.9 µM (active)
COc1cccc(N2C(=O)C(Cl)=C(N3CCN(c4ccccc4)CC3)C2=O)c1,IC50,[24],> 50 µM (inconclusive)
Nc1ccccc1SSc1ccccc1N,IC50,[7],25.8 µM (active)
same,IC50,[8],86.1 µM (active)
COCCN1C(=O)/C(=C/c2c(OC)cc(OC)cc2OC)C(=O)N(c2ccccc2)C1=O,EC50,[1],131 µM (active)
same,EC50,[2],> 300 µM (not active)
CN1CCN(c2ccc(NC(=O)c3ccc([N+](=O)[O-])o3)cc2Cl)CC1,AC50,[14],9.02 µM (active)
O=C(CCCCl)NC1=NN(c2ccccc2)C(=O)C1,IC50,[6],30.9 µM (active)
O=[N+]([O-])c1ccc(N/N=C/c2ccccc2)c(F)c1,CC50,[25],> 50 µM (active)
same,EC50,[9],> 99 µM (inactive)
same,EC50,[10],27.2 µM (inactive)
CC1(C)O[C@@H]2[C@H](O1)[C@@H](COS(=O)(=O)O)O[C@H]2n1c(S)nc2c(O)nc(N)nc21,IC50,[7],34.8 µM (active)
same,IC50,[8],53.7 µM (active)
COCCCNC(=O)COc1ccc(-c2nccc(-c3ccccn3)n2)cc1,IC50,[13],> 80 µM (inactive)
CCOC(=O)/C(C#N)=N\Nc1cc(Cl)ccc1OC,EC50,[9],> 99 µM (inactive)
same,EC50,[10],44.1 µM (inactive)
NS(=O)(=O)c1ccc(N/N=C/c2ccc[nH]2)c([N+](=O)[O-])c1,IC50,[6],65.5 µM (active)
